Source: patent US20090162351A1, “Transdiscal administration of inhibitors of p38 MAP kinase” (DePuy Spine, Inc., priority 2007, published 2009)

Assays:
Format in all cases: cell-based
[1] = test system: NO production in injured bovine cartilage explants; test: Drop tower model: NO production in injured cartilage explants; details: Bos taurus; at 10 μM; injured cartilage explants
Procedure: (§1) In the second method, the explants were cultured at 37° C., 5% CO2 either in stimulated or non-stimulated conditioned medium as described above or in defined medium containing DMEM supplemented with 1% FCS, 1× insulin-transferrin-sodium selenite media supplement and Antibiotics-Antimycotics in the presence or absence of a cocktail of cytokines containing 10 ng/ml of IL-1β, 100 ng/ml of TNFα and 5 ng/ml of IFN-γ. The compounds were solubilized in H2O, Ethanol or DMSO (10^−2 M) according to suppliers' instructions and further diluted with either conditioned medium stimulated with or without LPS to the required concentrations. DMSO concentrations in the culture media never exceeded 1%. This concentration of DMSO has no effect on cartilage proteoglycan metabolism in response to cytokines. The injured and noninjured cartilage explants were treated with compound-containing medium for three to five days. The specimens were first treated with compounds at desired concentrations at 37° C. for one hour and then incubated for three to five days in the absence or presence of the cocktail of cytokines. At the end of the incubation, media and cartilage samples were harvested and frozen for further analysis.
Nitrate/Nitrite was measured using the Griess reaction (Green L. C. et al., “Analysis of Nitrate, Nitrite, and [15N]nitrate in Biological Fluids,” Anal. Biochem. 126: 131-138 (1982)) with a Nitrate/Nitrite Colorimetric Assay Kit (Cayman Chemicals), as described in Example III above.

[2] = test system: PGE2 synthesis in injured bovine cartilage explants; test: Drop tower model: PGE2 synthesis in injured cartilage explants
Procedure: as §1
PGE2 was measured with STAT-Prostaglandin E2 EIA ELISA kit (Cayman Biochemicals), as described in Example III above. The antibody-PGE2 complex binds to a goat polyclonal anti-mouse IgG that has been previously attached to the well. After washing to remove any unbound reagents, para-nitrophenyl phosphate (pNPP) was added to the well. The product of this enzymatic reaction absorbs strongly at 412 nm. Because of the large range in response to IL-1β and other cytokines, PGE2 values were converted to log scale prior to doing t-tests.

[3] = test system: injured bovine articular cartilage explants in inflammatory medium; test: Drop tower model: GAG degradation in injured cartilage explants; details: for inhibition at 10 µM: Bos taurus, injured cartilage explants
From the text: In order to assess cartilage breakdown by inflammatory mediators and the effect of antagonists on those mediators, a cartilage impact model (the “drop tower model”) was established using a drop tower device to apply a peak compressive stress to a cartilage sample of about 20-30 MPa over an area of about 11-15 mm^2. Advantages of this model included its clinical relevance due to its potential to mimic several key parameters of osteoarthritis such as inflammatory cell mediators (by co-culturing with inflammatory cells), and induction of trauma to create the cartilage damage.
In the “drop tower design model” cartilage explants were first injured and then cultured in inflammatory medium to mimic the progression of joint impact trauma linked to cartilage degeneration and osteoarthritis. The approach of the model is to artificially produce cellular damage without gross structural alterations, and to determine how the cells respond to such an insult over the ensuing days when treated with or without potential therapeutic agents.
The device comprises a vertical rail that guides a sliding weight from 0.1 kg to 3 kg directly onto a force transducer which is situated at the bottom of the device. A sphere-shaped 2 mm indenter resting on a specimen is located at the bottom of the vertical rail. The indenter is held by a stop screw. The specimen is rigidly attached to a tissue holder underneath the indenter, to avoid side movements, the specimen is rigidly attached to the tissue holder. In this manner, the force transducer transduces a force indirectly onto the specimen. Adjusting the weight of a mass and height from which the mass drops varies the magnitude of the intended impact. For example, a weight mass (e.g., […]) held by a weight holder can be released from a height of e.g., 36 cm and dropped onto the force transducer.
Samples for compound evaluation were tested using either of two different methods to induce inflammatory conditions. One method utilized media conditioned from peripheral blood mononuclear cells (PBMCs) stimulated with LPS (“+LPS”) or non-inflammatory media without LPS (“−LPS”). Another method utilized the absence or presence of a cocktail of cytokines.
In the first method, bovine or human PBMCs were freshly prepared using Ficoll gradient by Lampire Biological Laboratories, Inc. PBMCs in RPMI w/10% FCS at delivery were spun down at 1500 rpm for twenty minutes and the cell pellet was washed twice with 1×PBS to wash off the residual Ficoll. The cells were then resuspended at a density of 1×10^6/ml in RPMI supplemented with 10% FCS, 1× Antibiotics-Antimycotics. The suspension was divided into two aliquots. One aliquot was stimulated with 10 μg/ml of LPS and the other was not stimulated. Both aliquots were then incubated at 37° C., 5% CO2 for twenty-four to seventy-two hours. The conditioned media with or without LPS stimulation are collected, aliquoted, and stored in −80° C. for a maximum of three months. Each conditioned medium was assessed for levels of pro-inflammatory cytokines to ensure their secretion from PBMC. A representative cytokine, IL-6, was assayed by ELISA using a Human IL-6 Quantikine kit and it was shown that the LPS-stimulated medium had at least 10 ng/ml of IL-6, while IL-6 was undetectable in the unstimulated medium.
In the second method, the explants were cultured at 37° C., 5% CO2 either in stimulated or non-stimulated conditioned medium as described above or in defined medium containing DMEM supplemented with 1% FCS, 1× insulin-transferrin-sodium selenite media supplement and Antibiotics-Antimycotics in the presence or absence of a cocktail of cytokines containing 10 ng/ml of IL-1β, 100 ng/ml of TNFα and 5 ng/ml of IFN-γ. The compounds were solubilized in H2O, Ethanol or DMSO (10^−2 M) according to suppliers' instructions and further diluted with either conditioned medium stimulated with or without LPS to the required concentrations. DMSO concentrations in the culture media never exceeded 1%. […]

[4] = test system: IL-1β-stimulated NO production in bovine chondrocyte pellets / ARC tissues; test: Chondrocyte pellet / ARC culture model: total nitrite and nitrate assay; details: Table 3B
From the text: (§2) Calf articular cartilage was obtained from the knee joints of eight to twelve month old animals and was processed within twenty-four hours after sacrifice. After removal of muscle and ligament, the cartilage was kept moist using phosphate buffer solution (PBS) to prevent tissue dehydration, and was aseptically peeled off from subchondral bone with a scalpel, and the cartilage pieces were further minced into smaller pieces (˜0.3-0.5×˜0.2-0.5 cm cubes). […] Chondrocytes were then enzymatically isolated from the tissue by incubation for overnight at 37° C. with gentle agitation in 0.2% collagenase in Dulbecco's modified eagle media (DMEM). After removal of tissue debris by filtration through cell strainer and the residual collagenase by 3× wash in PBS, cells were finally resuspended at a density of 2.5×10^6 cells/ml in chondrocyte medium. A 1 ml aliquot of the cell suspension was dispensed into either a 15 ml Falcon centrifuge tube or a 96 deep-well plate and centrifuged at 2000×g for five minutes. The chondrocyte pellets were incubated at 37° C. in a humidified atmosphere of 5% CO2 for two to three weeks with a medium change every other day.
(§3) As an alternative to using calf articular cartilage, a commercial Aliginate Recovered Chondrocytes (ARC) system was also used (Articular Engineering, LLC (Northbrook, Ill.)). Use of the commercial system cut down on labor and time in producing chondrocyte pellet. This system produced cartilaginous tissue in vitro using bovine chondrocytes. The first step consisted of culturing chondrocytes in alginate under conditions optimal for the formation of a cell-associated matrix (CM). The second step allowed these cells with their CM, after recovery, to rapidly form and become integrated into a solid mass of cartilage on a porous insert within two weeks.
(§4) Chondrocyte pellets were washed once with 1 ml of Chondrocyte Stimulation Medium and equilibrated in the same medium at room temperature for fifteen to thirty minutes. Compounds were dissolved in H2O, Ethanol or dimethyl sulfoxide (DMSO) (10^−2 M) according to suppliers' instructions and further diluted with Chondrocyte Stimulation Medium to the required concentrations. DMSO concentrations in the culture media should not exceed 1%; this concentration of DMSO has no effect on cartilage proteoglycan metabolism in response to cytokines.
(§5) The pellets were first treated with compounds at desired concentrations at 37° C. for one hour and then incubated for three to five days in the absence or presence of 10 ng/ml of IL-1β. At the end of the incubation, media and pellets were harvested and frozen for further analysis. Pellets were also fixed as needed in 4% (w/v) paraformaldehyde in PBS for histology analysis.
Nitrate/Nitrite levels were measured using the Griess reaction (Green L. C. et al., “Analysis of Nitrate, Nitrite, and [15N]nitrate in Biological Fluids,” Anal. Biochem. 126: 131-138 (1982)) with a Nitrate/Nitrite Colorimetric Assay Kit (Cayman Chemicals), the contents of which are incorporated herein by reference. The assay involved a simple two-step process. The first step involved conversion of nitrate in 50 μl of culture medium to nitrite utilizing nitrate reductase in a reaction volume of 100 μl at room temperature for two hours. The second step involved the addition of 50 μl of both Griess Reagent 1 and 2, which converted nitrite into a deep purple azo compound in ten minutes. Photometric measurement of the absorbance at 540 or 550 nm due to this azo chromophore accurately determined nitrite concentration. This assay kit cannot be used for RPMI (Roswell Park Memorial Institute) derived tissue culture medium due to interference with the colorimetric reaction.
(§6) To characterize the relative efficacies among different p38 MAP kinase inhibitors, dose-response curves were generated for both PGE2 and NO assays. […] After one hour of treatment, ARCs were stimulated with or without 7.5 ng/ml IL-1β and continued to incubate for five days before assay. […]

[5] = test system: bovine chondrocyte pellets / ARC tissues stimulated with IL-1β; test: Chondrocyte pellet / ARC culture model: GAG degradation assay; details: Table 3B
From the text: A chondrocyte pellet culture model was developed for in vitro high throughput screening of therapeutic compounds for inhibition of IL-1β-stimulated matrix degradation. The chondrocyte pellet culture model can be used to detect various potential therapeutic compounds effective in blocking different processes caused by IL-1β stimulation. For example, IL-1β stimulation results in increased glycosaminoglycan (GAG) degradation, prostaglandin E2 (PGE2) synthesis and total nitrite/nitrate production. Compounds with different mechanisms of action may inhibit the increase of one or two or all three of these parameters. For this reason, screening by, for example, measuring only GAG release would be limited to detection of a specific class of inhibitors and may not detect compounds with diversified mechanisms of function which may be involved in inhibition of the IL-1 stimulated inflammatory process. The development of the chondrocyte pellet culture assay system in a 96-well plate made possible large-scale screening of potential therapeutic compounds with different mechanisms of action.
as §2, §3
This tissue is rich in cells surrounded by a cell-associated matrix that is degraded rapidly when the cells are exposed to IL-1. ARC tissues in 3 mm punches at delivery were first dispensed into a 96 deep-well plate, one punch per well, for compound treatment. The subsequent procedures were the same as those used for the chondrocyte pellets.
as §4
The pellets were first treated with compounds at desired concentrations at 37° C. for one hour and then incubated for three to five days in the absence or presence of 10 ng/ml of IL-1β. […]

[6] = test system: IL-1β-stimulated PGE2 synthesis in bovine chondrocyte pellets / ARC tissues; test: Chondrocyte pellet / ARC culture model: Prostaglandin E2 assay; details: Table 3B
From the text: as §2, §3, §4, §5
Prostaglandin E2 (PGE2) was measured with a STAT-Prostaglandin E2 EIA ELISA kit (Cayman Biochemicals). This assay is based on the competition between PGE2 from 50 μl samples and a PGE2-alkaline phosphatase conjugate for a limited amount of PGE2 monoclonal antibody in a reaction volume of 150 μl at room temperature for one hour. The antibody-PGE2 complex bound to a goat polyclonal anti-mouse IgG that had been previously attached to the well. After washing to remove any unbound reagents, para-nitrophenyl phosphate (pNPP) was added to the well. The product of this enzymatic reaction absorbs strongly at 412 nm. Because of the large range in response to IL-1β and other cytokines, PGE2 values were converted to log scale prior to doing t-tests.
as §6, with “assay. The IL-1β-stimulated PGE2 synthesis or NO production was first calculated by subtraction of PGE2/NO levels in the absence of IL-1β from that in the presence of IL-1β.” for “assay.”

For `CNC(=O)[C@H](Cc1ccccc1)NC(=O)[C@H](CC(C)C)[C@H](CSc1cccs1)C(=O)NO` [Batimastat, reference compound], the inhibition at 10 µM [1] was 100%, the “PGE2 synthesis (in words)” value ([2]; 10 μM, cocktail of cytokines (IL-1β, TNF-α, INF-γ), five days) was “did not inhibit” and the “Inhibition of PGE2 synthesis (in words)” value ([2]; Table 4) was “No effect”. For the same molecule, the inhibition at 10 µM [3] was 100%.

For `C[C@H]1[C@H](C)CC[C@]2(C(=O)O[C@@H]3O[C@H](CO[C@@H]4O[C@H](CO)[C@@H](O[C@@H]5O[C@@H](C)[C@H](O)[C@@H](O)[C@H]5O)[C@H](O)[C@H]4O)[C@@H](O)[C@H](O)[C@H]3O)CC[C@]3(C)C(=CC[C@@H]4[C@@]5(C)C[C@@H](O)[C@H](O)[C@@](C)(CO)[C@@H]5[C@H](O)C[C@]43C)[C@H]12` [Madecassoside, reference compound], the “NO Inhibition, Pellet Assay (in words)” value [4] was “No effect”, the “GAG Release, Pellet Assay (in words)” value [5] was “No effect” and the “PGE2 Inhibition, Pellet Assay (in words)” value [6] was “No effect”.

In the case of `CN1C(C(=O)Nc2ccccn2)=C(O)c2ccccc2S1(=O)=O` [Proxicam, reference compound], the “GAG Release, Pellet Assay (in words)” value [5] is reported as “No effect” and the “Inhibition of GAG degradation (in words)” value ([3]; Table 4, injured cartilage explants, inflammatory conditions) is reported as “No effect”.

With `CC(C(=O)O)c1ccc(C(=O)c2ccccc2)s1` (centres unmarked) [Tiaprofenic Acid, reference compound] the “GAG Release, Pellet Assay (in words)” value [5] was “No effect” and the inhibition at 10 µM [3] was 70%.

In the case of `CC1(C)O[C@@H]2[C@@H](CO[C@@]3(COS(N)(=O)=O)OC(C)(C)O[C@@H]23)O1` [Topramax, reference compound], the “NO Inhibition, Pellet Assay (in words)” value [4] is reported as “No effect”, the “GAG Release, Pellet Assay (in words)” value [5] is reported as “No effect” and the “PGE2 Inhibition, Pellet Assay (in words)” value [6] is reported as “No effect”.
